Laboratory results published in paper PMC11292843 (ACS Omega, 2024).
Where two headings read alike, the source gives them in different places.

Experiments:
hPTP1B1–400 [1] = biological target: T1, hPTP1B1–400 (Homo sapiens, UniProt P18031); experiment: PTP1B inhibition assay (pNPP, spectrocolorimetric), long form; settings: for fold higher potency for hPTP1B1–400 over hPTP1B1–285: ratio of IC50 values, long vs short form
T1 sequence (P18031 1-400): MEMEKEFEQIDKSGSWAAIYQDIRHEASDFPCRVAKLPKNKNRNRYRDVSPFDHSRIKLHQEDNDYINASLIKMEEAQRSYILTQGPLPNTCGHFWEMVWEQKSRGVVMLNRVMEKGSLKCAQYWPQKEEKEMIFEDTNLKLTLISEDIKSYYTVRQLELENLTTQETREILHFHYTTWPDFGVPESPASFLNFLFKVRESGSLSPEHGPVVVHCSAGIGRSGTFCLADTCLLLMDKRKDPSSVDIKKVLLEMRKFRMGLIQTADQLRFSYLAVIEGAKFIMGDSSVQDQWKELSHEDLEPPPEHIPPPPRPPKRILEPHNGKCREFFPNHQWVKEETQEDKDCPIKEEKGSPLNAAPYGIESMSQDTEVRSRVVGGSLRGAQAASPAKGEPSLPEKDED

hTCPTP = biological target: T2, hTCPTP (Homo sapiens, UniProt P17706); experiment: Selectivity assay against TCPTP; assay type: biochemical; settings: for IC50: concentrations tested 1 to 400 μM, read-out: TCPTP IC50 ± SD
T2 construct: His tag (vector pET-28a(+)-TEV, with TEV site); made in house; host or cells: E. coli BL21 (DE3)
T2 sequence (P17706 1-415): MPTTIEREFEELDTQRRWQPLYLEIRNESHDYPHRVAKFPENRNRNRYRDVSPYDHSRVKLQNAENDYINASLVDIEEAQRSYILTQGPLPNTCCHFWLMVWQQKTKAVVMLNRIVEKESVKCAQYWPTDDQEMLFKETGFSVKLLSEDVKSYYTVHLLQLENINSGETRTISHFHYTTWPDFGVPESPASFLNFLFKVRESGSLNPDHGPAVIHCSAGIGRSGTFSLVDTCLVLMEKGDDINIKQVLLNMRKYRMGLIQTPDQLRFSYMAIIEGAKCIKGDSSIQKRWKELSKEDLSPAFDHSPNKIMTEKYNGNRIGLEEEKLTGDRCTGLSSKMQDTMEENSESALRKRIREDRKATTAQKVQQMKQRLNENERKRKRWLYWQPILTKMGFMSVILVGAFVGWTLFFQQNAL
Experimental: A spectrocolorimetric method previously described[3] was employed to test the inhibitory effect of the new compounds against PTP1B. […] Enzyme solutions containing pNPP and inhibitors were incubated at 37 °C for 15 min. […] The percentage of inhibition was plotted as a function of the inhibitor concentrations.
Similarly to the IC50, the assays to determine the selectivity were carried out in the same experimental conditions using hPTP1B1–400 and hTCPTP.
The expression vector pET-28a(+)-TEV was obtained from Invitrogen (Waltham, MA, USA). E. coli strain DH5α and BL21 (DE3) were purchased from Invitrogen (Waltham, MA, USA). The gene PTPN2 was subcloned into the expression vector pET-28a (+)-TEV, using the NDEI and BAMHI cloning sites. The construction pET-28A(+)-TEV–PTPN2 was transformed into E. coli strain BL21 (DE3). Transformed E. coli cells were grown in LB media containing kanamycin ([…]) at 37 °C for 6 h with continuous agitation (250 rpm). Once the cultures reached an A600 of 0.6 (about 6 h), protein expression was induced with 1 mM IPTG at 37 °C, 250 rpm for 8 h. After centrifuge (4500 rpm, 15 min, 4 °C), the grown and IPTG-induced cultures and bacterial pellet were resuspended in Tris buffer (pH 6.8) and lysed by sonication (10 cycles, intervals of 30 s) in an ice–water bath with an ultrasonic processor (Cole-Parmer, Vernon Hills, IL, USA). […] The column was equilibrated with three column volumes of 50 mM Tris, pH 6.8. His-tagged protein was eluted with Tris 50 mM and 300 mM imidazole with one column volume. […] Fractions containing hTCPTP were dialyzed in 50 mM Tris, pH 6.8. The purity of the protein was followed by SDS-polyacrylamide gel electrophoresis (SDS-PAGE) using a 12% resolving gel.

hPTP1B1–285 = biological target: T3, hPTP1B1–285 (Homo sapiens, UniProt P18031); experiment: PTP1B inhibition assay (pNPP, spectrocolorimetric), short form
T3 sequence (P18031 1-285): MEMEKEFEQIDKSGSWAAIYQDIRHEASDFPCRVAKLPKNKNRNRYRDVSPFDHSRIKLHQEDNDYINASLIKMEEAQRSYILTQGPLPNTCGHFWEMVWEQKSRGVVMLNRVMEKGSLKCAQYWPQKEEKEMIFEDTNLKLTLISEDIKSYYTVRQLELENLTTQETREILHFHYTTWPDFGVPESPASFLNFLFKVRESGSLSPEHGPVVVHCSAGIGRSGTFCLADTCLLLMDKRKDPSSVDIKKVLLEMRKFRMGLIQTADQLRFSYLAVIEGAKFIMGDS

hPTP1B1–400 [2] = biological target: T1, hPTP1B1–400; experiment: Enzyme kinetics (Lineweaver–Burk, varying pNPP); settings: for inhibition mechanism: hPTP1B1–400, best fit of inhibition models; for Km / Vmax: hPTP1B1–400, pNPP 0.1–0.5 mM
PTP1B = settings: cited from earlier work
TCPTP = settings: cited from earlier work
hPTP1B1–400 [3] = biological target: T1, hPTP1B1–400; parameters: containing purified hPTP1B 66 nM (hPTP1B1–285 and hPTP1B1–400) and pNPP 0.5 mM; made in house; method as in PMID 36997321; settings: cited from earlier work
[4] = IC50 ± SD hPTP1B1–400, hPTP1B 66 nM, pNPP 0.5 mM, 37 °C, 15 min
[5] = PTP1B IC50 ± SD, selectivity assay, hPTP1B1–400

| SMILES | IC50 (hPTP1B1–400 [1]; [4]) [µM] | IC50 (hPTP1B1–400 [1]; [5]) [µM] | IC50 (hTCPTP) [µM] | selectivity (PTP1B over TCPTP) (hTCPTP; hPTP1B1–400 vs hTCPTP) | IC50 (hPTP1B1–285) [µM] | Ki (hPTP1B1–400 [2]) [µM] | inhibition mechanism (hPTP1B1–400 [2]) | Km (hPTP1B1–400 [2]) [µM] | Vmax (hPTP1B1–400 [2]) [mM/min] | further results |
| --- | --- | --- | --- | --- | --- | --- | --- | --- | --- | --- |
| C[C@H](CCC(=O)O)C1CCC2C3CC[C@@H]4C[C@](O)(CNCc5cc(C(F)(F)F)cc(C(F)(F)F)c5)CC[C@]4(C)C3CC[C@@]21C.Cl (stereo partly drawn) [compound 6o, N-(3,5-bis(trifluoromethyl)benzyl)-1-((3S,5R,10S,13R)-17-((R)-4-carboxybutan-2-yl)-3-hydroxy-10,13-dimethylhexadecahydro-1H-cyclopenta[a]phenanthren-3-yl)methanaminium Chloride] | 11 ± 0.2 | 11 ± 0.2 | > 400 | Yes | 43 ± 1.3 | 3.9 ± 0.7 | Uncompetitive | 1900 ± 300 | 2.7 ± 0.4 | – |
| CC(C)[C@@H](CC[C@@H](C)[C@H]1CC[C@H]2[C@@H]3[C@H](O)C[C@H]4C[C@@H](NCCCNCCCCNCCCN)CC[C@]4(C)[C@H]3CC[C@]12C)OS(=O)(=O)O [Trodusquemine] | – | – | – | – | – | – | – | – | – | inhibition mechanism (PTP1B): […]; IC50 (PTP1B; read-out: IC50 against PTP1B): […]; IC50 (TCPTP; read-out: IC50 against TCPTP): 224 µM |
| Cc1ccc(C(=O)Nc2ccc(S(=O)(=O)O)c3cc(S(=O)(=O)O)cc(S(=O)(=O)O)c23)cc1NC(=O)c1cccc(NC(=O)Nc2cccc(C(=O)Nc3cc(C(=O)Nc4ccc(S(=O)(=O)O)c5cc(S(=O)(=O)O)cc(S(=O)(=O)O)c45)ccc3C)c2)c1 [SUR, suramin] | – | – | – | – | – | – | – | – | – | Km (hPTP1B1–400 [3]): 290 ± 20 µM; Vmax (hPTP1B1–400 [3]): 0.64 ± 0.02 mM/min; inhibition mechanism (hPTP1B1–400 [3]): competitive inhibition |
| O=C(O)C(=O)Nc1sc2c(c1C(=O)O)CCNC2 [TCS401, reference compound] | 8.1 ± 0.9 | 8.15 ± 0.91 | 6.7 ± 0.6 | – | 12.4 ± 1 | – | – | – | – | Ki (PTP1B): 4.7 µM |
| C[C@H](CCC(=O)O)C1CCC2C3CC[C@@H]4C[C@](O)(CNCc5cccc(C(F)(F)F)c5)CC[C@]4(C)C3CC[C@@]21C.Cl (stereo partly drawn) [compound 6m, 1-((3S,5R,10S,13R)-17-((R)-4-carboxybutan-2-yl)-3-hydroxy-10,13-dimethylhexadecahydro-1H-cyclopenta[a]phenanthren-3-yl)-N-(3-(trifluoromethyl)benzyl)methanaminium Chloride] | 7.3 ± 0.5 | 7.3 ± 0.5 | > 400 | Yes | 34.9 ± 0.4 | 2.5 ± 0.4 | uncompetitive inhibition | 780 ± 200 | 1.05 ± 0.18 | fold higher potency for hPTP1B1–400 over hPTP1B1–285 (hPTP1B1–400 [1]): around 5 fold; fold selectivity for PTP1B over TCPTP (hTCPTP; hPTP1B1–400 vs hTCPTP): around 75 fold |
| C[C@H]1[C@H](C)CC[C@]2(C(=O)O)CC[C@]3(C)C(=CC[C@@H]4[C@@]5(C)CC[C@H](O)C(C)(C)[C@@H]5CC[C@]43C)[C@H]12 [UA, ursolic acid] | – | – | > 400 | – | – | – | – | – | – | Vmax (hPTP1B1–400 [3]): 0.63 ± 0.08 mM/min; inhibition mechanism (hPTP1B1–400 [3]): mixed inhibition |
| C[C@H](CCC(=O)O)[C@H]1CC[C@H]2[C@@H]3CC[C@@H]4C[C@H](O)CC[C@]4(C)[C@H]3CC[C@]12C [LA, lithocholic acid, reference compound] | – | – | > 400 | only inhibited PTP1B but not TCPTP and Yes | 22.2 ± 0.9 | 5.5 ± 1.1 | uncompetitive inhibitor | 1200 ± 300 | 1.7 ± 0.3 | IC50 (hPTP1B1–400 [1]): 14 ± 0.9 µM; fold higher potency for hPTP1B1–400 over hPTP1B1–285 (hPTP1B1–400 [1]): 1.5 fold; IC50 (PTP1B; read-out: IC50 (PTP1B)): 12.5 µM; fold selectivity for PTP1B over TCPTP (TCPTP): 2 fold |
